The source of these data is publication doi:10.1101/2022.03.24.485529v3, “Distinct bile salt hydrolase substrate preferences dictate C. difficile pathogenesis” (biorxiv, 2022).

One assay deals with T1, LgasBSHa (Lactobacillus gasseri, UniProt A0A805Z5R7).
T1 construct: gene bsh; heterologously expressed and purified; homotetramer, neighbouring monomer donates loop to active site
T1 sequence (A0A805Z5R7 2-316): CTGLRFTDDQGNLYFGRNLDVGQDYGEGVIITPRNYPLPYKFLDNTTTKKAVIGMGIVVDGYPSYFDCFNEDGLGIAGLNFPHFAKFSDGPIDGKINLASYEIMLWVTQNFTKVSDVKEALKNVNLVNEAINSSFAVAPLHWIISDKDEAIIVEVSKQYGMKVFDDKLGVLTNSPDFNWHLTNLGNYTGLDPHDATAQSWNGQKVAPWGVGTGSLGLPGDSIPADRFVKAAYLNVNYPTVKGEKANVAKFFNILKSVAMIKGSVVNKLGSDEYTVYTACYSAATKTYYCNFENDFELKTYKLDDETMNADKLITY
Briefly: X-ray crystallography. The assay is classed as binding. Conditions: active site.

Another assay addresses T2, LingBSH (Limosilactobacillus ingluviei, UniProt A0A0R1U3N2).
T2 construct: gene FC43_GL000624; heterologously expressed and purified; homotetramer; species inferred from the abbreviation Ling
T2 sequence (A0A0R1U3N2 2-327): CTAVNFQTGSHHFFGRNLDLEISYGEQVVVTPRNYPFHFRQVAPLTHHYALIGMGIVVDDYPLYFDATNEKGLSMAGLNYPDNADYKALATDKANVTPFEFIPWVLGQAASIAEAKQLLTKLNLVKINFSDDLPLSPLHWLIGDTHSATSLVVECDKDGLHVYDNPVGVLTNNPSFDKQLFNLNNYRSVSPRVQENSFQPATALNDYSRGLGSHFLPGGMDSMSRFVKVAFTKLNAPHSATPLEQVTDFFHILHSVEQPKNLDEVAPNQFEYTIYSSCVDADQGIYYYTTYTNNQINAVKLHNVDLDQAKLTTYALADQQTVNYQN
Briefly: deconjugation of AA-CA pool by LC-IMS-MS. In kind it is biochemical. The settings on record: pool of CA conjugated to 22 amino acids.

`NCCS(=O)(=O)O` [taurine]: the X-ray crystallography entry at LgasBSHa (complexes with taurine alone and with taurine plus CDCA) is “LgasBSHa was resolved in complexes with taurine or taurine plus CDCA”.
On to `C[C@H](CCC(=O)O)[C@H]1CC[C@H]2[C@@H]3[C@H](O)C[C@@H]4C[C@H](O)CC[C@]4(C)[C@H]3CC[C@]12C` [CDCA], for which the X-ray crystallography result at LgasBSHa (ternary complex with taurine) is on record as “LgasBSHa was resolved in complexes with taurine or taurine plus CDCA”.
For the compound `C[C@H](NC(=O)CC[C@@H](C)[C@H]1CC[C@H]2[C@@H]3[C@H](O)C[C@@H]4C[C@H](O)CC[C@]4(C)[C@H]3C[C@H](O)[C@]12C)C(=O)O` [Ala-CA], at LingBSH (also purified Ala-CA (enzyme not named in that sentence)), the “% deconjugation after 5 minutes” value is “Ala and Ser-conjugated BAs are efficiently processed”.
Consider `C[C@H](CCC(=O)N[C@@H](CO)C(=O)O)[C@H]1CC[C@H]2[C@@H]3[C@H](O)C[C@@H]4C[C@H](O)CC[C@]4(C)[C@H]3C[C@H](O)[C@]12C` [Ser-CA], for which, at LingBSH (also purified Ser-CA (enzyme not named in that sentence)), the “% deconjugation after 5 minutes” value was “Ala and Ser-conjugated BAs are efficiently processed”.
